Results from ChEMBL document CHEMBL1817647, “1-Heteroaryl-6-(3,4-dichlorophenyl)-3-azabicyclo[4.1.0]heptane: further insights into a class of triple re-uptake inhibitors” (Bioorg Med Chem, 2011).

Experiments:
[1] = molecular target: Sodium-dependent serotonin transporter (Homo sapiens, UniProt P31645); assay: Displacement of [3H]citalopram from human recombinant SERT scintillation proximity assay
[2] = molecular target: Sodium-dependent noradrenaline transporter (Homo sapiens, UniProt P23975); assay: Displacement of [3H]nisoxetine from human recombinant NET by scintillation proximity assay
Sequence of Sodium-dependent noradrenaline transporter (P23975 whole entry): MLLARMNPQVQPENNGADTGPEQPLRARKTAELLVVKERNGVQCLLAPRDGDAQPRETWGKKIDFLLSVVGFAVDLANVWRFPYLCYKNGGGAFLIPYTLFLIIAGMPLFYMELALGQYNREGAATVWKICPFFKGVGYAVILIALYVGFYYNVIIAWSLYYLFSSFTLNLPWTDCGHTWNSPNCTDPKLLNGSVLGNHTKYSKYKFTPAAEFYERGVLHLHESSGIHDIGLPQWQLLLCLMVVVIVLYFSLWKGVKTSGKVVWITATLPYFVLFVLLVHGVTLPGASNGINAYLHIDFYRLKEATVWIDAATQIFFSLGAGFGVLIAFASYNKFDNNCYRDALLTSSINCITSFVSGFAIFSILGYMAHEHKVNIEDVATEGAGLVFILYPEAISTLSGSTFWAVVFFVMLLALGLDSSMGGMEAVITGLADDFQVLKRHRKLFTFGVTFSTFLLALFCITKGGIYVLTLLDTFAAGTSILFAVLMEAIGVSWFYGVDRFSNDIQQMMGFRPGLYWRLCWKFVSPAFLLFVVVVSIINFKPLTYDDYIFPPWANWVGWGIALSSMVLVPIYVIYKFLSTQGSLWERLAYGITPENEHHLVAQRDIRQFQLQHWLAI

[3] = molecular target: Sodium-dependent dopamine transporter (Homo sapiens, UniProt Q01959); assay: Displacement of [3H]WIN-35428 from human recombinant DAT by scintillation proximity assay
Sequence of Sodium-dependent dopamine transporter (Q01959 whole entry): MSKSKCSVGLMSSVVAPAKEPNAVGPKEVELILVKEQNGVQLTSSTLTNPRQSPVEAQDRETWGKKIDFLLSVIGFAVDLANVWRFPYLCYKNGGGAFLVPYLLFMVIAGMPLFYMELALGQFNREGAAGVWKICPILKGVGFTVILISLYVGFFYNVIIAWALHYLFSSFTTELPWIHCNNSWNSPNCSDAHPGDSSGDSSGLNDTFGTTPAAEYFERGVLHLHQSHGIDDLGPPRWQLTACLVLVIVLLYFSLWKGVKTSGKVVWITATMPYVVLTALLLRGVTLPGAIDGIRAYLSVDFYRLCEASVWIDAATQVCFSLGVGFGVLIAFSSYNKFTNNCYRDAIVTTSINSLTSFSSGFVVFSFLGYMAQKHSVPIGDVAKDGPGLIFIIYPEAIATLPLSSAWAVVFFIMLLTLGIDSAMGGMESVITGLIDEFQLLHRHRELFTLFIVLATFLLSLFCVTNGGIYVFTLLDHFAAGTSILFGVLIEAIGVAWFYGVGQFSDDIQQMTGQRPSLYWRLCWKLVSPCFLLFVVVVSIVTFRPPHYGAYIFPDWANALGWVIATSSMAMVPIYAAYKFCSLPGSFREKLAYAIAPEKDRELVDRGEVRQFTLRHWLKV

[4] = molecular target: Cytochrome P450 2D6 (Homo sapiens, UniProt P10635); assay: Inhibition of human CYP2D6 incubated for 10 mins before substrate addition by fluorescence assay
Sequence of Cytochrome P450 2D6 (P10635 whole entry): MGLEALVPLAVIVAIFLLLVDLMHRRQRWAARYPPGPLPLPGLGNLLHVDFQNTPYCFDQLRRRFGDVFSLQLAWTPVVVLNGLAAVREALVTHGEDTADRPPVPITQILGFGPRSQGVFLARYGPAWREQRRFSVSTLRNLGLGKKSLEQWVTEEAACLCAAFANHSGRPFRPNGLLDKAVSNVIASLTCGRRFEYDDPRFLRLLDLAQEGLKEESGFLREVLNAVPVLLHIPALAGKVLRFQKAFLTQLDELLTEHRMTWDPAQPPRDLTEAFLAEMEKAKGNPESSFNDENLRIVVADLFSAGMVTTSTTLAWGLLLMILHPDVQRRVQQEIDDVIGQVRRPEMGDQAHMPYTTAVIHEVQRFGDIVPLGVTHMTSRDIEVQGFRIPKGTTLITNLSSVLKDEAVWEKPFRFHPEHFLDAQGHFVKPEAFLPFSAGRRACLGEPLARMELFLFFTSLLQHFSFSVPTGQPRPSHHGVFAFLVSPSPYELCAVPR

[5] = Blood clearance in rat; assay type: ADME, organism-based
[6] = molecular target: Cytochrome P450 2C9 (Homo sapiens, UniProt P11712); assay: Inhibition of human CYP2C9 incubated for 10 mins before substrate addition by fluorescence assay
Sequence of Cytochrome P450 2C9 (P11712 whole entry): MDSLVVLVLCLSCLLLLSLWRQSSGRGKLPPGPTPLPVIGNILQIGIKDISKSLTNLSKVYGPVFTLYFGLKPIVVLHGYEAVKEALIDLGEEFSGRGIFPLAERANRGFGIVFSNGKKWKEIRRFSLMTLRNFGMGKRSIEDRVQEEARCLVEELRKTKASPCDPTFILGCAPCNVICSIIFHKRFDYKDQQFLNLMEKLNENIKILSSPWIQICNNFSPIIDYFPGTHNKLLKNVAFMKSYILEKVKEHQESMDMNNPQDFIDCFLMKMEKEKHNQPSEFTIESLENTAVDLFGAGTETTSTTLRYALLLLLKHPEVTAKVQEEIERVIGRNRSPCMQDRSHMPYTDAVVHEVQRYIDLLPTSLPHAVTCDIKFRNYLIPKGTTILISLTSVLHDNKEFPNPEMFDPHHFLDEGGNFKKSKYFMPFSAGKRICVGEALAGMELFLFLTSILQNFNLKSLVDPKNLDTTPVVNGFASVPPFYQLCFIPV

[7] = Oral absorption in rat; assay type: ADME, organism-based; details: in vivo
[8] = Ratio of drug level in brain to blood in rat after 1 hr; assay type: ADME, tissue-based; details: read-out: BBR
[9] = molecular target: T1, Cytochrome P450 1A2 (Homo sapiens, UniProt P05177); assay: Inhibition of human CYP1A2 incubated for 10 mins before substrate addition by fluorescence assay
T1 sequence (P05177 whole entry): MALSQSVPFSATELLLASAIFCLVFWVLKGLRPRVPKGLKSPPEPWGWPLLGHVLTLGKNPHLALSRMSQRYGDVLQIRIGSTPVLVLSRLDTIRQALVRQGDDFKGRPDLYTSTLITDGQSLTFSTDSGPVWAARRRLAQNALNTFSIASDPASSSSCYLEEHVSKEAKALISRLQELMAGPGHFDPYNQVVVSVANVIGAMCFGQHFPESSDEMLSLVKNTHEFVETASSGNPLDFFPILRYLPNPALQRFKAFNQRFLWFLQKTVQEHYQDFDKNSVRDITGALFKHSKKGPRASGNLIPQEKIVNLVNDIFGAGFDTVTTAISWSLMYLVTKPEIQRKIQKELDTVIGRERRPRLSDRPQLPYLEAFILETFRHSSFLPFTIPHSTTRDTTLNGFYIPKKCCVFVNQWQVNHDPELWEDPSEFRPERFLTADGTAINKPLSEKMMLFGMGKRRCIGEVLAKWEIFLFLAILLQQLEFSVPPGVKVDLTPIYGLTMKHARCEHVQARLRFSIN

[10] = molecular target: Cytochrome P450 2C19 (Homo sapiens, UniProt P33261); assay: Inhibition of human CYP2C19 incubated for 10 mins before substrate addition by fluorescence assay
Sequence of Cytochrome P450 2C19 (P33261 whole entry): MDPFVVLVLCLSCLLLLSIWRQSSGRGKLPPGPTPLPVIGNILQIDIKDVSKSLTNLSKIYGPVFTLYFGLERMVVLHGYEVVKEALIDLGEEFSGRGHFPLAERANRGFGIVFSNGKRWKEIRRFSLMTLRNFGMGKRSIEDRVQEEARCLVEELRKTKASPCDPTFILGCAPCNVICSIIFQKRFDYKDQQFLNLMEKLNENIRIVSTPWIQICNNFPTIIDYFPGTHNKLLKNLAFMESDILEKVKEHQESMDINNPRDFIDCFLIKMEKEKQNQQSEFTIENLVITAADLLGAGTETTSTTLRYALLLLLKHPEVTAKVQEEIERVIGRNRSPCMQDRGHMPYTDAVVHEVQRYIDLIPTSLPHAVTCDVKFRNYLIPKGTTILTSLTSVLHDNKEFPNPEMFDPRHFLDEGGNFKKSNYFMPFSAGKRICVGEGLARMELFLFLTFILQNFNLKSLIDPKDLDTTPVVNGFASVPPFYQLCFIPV

[11] = Half life in rat; assay type: ADME, organism-based; details: in vivo
[12] = Hepatic extraction ratio in rat; details: in vivo
[13] = molecular target: Cytochrome P450 3A4 (Homo sapiens, UniProt P08684); assay: Inhibition of human CYP3A4 incubated for 10 mins before substrate addition by fluorescence assay
Sequence of Cytochrome P450 3A4 (P08684 whole entry): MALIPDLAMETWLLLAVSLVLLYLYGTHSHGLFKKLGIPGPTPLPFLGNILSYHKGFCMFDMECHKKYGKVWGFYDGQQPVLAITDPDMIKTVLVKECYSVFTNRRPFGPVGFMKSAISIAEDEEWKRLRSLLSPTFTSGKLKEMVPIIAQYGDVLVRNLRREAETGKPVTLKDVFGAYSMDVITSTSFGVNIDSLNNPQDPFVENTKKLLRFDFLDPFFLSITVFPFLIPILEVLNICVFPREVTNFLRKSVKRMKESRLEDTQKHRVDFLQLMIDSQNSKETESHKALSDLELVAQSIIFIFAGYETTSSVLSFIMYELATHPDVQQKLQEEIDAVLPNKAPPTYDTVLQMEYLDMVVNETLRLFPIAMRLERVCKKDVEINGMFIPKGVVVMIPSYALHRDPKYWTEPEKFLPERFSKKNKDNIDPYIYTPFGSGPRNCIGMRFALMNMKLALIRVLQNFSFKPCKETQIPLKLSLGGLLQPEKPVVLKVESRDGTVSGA

[14] = Oral bioavailability in rat; assay type: ADME, organism-based; details: in vivo
[15] = Volume of distribution in rat; assay type: ADME, organism-based; details: in vivo
[16] = tested on: Liver microsomes; assay: Intrinsic clearance in human liver microsomes assessed per mg of protein at 0.5 uM for 30 mins by HPLC-MS/MS analysis in presence of NADPH; assay type: ADME, Microsome; details: 0.5 h
[17] = tested on: Liver microsomes; assay: Intrinsic clearance in rat liver microsomes assessed per mg of protein at 0.5 uM for 30 mins by HPLC-MS/MS analysis in presence of NADPH; assay type: ADME, Microsome; details: 0.5 h

Sequence of Sodium-dependent serotonin transporter (P31645 whole entry): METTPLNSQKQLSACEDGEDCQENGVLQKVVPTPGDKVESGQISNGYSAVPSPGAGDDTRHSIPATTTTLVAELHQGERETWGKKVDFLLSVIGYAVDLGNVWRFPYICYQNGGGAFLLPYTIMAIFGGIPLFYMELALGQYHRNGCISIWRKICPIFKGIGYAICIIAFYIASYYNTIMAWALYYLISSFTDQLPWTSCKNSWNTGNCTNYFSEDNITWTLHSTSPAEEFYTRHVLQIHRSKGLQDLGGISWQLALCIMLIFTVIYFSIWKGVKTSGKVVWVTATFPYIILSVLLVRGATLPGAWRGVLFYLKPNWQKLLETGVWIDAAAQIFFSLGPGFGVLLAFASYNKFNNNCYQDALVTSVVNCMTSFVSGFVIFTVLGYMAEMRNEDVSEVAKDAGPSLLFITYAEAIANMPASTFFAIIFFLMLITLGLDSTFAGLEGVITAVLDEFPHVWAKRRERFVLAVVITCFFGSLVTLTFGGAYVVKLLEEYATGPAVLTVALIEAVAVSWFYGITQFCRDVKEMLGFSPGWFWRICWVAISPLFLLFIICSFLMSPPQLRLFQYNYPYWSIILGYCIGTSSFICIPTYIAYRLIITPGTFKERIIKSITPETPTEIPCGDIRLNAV

SMILES | Ki [1] [µM] | Ki [2] [µM] | Ki [3] [µM] | also measured
Cc1csc(C[C@@]23CNCC[C@]2(c2ccc(Cl)c(Cl)c2)C3)n1 (racemic) | 0.0001 | 0.000631 | 0.00631 | 
Cc1coc(C[C@@]23CNCC[C@]2(c2ccc(Cl)c(Cl)c2)C3)n1 (racemic) | 0.002 | 0.0316 | 0.0631 | 
Cc1cnn(C[C@@]23CNCC[C@]2(c2ccc(Cl)c(Cl)c2)C3)c1 (racemic) | 0.000794 | 0.0794 | 0.126 | 
Clc1ccc([C@]23CCNC[C@@]2(Cn2cncn2)C3)cc1Cl (racemic) | 0.00398 | 0.1 | 0.2 | 
Clc1ccc([C@]23CCNC[C@@]2(Cn2cccc2)C3)cc1Cl (racemic) | 0.000398 | 0.01 | 0.0158 | 
N#Cc1ccn(CC23CNCC[C@]2(c2ccc(Cl)c(Cl)c2)C3)c1 (single isomer, unassigned; enantiomer 1) | 0.000631 | 0.0316 | 0.0126 | 
Cc1ccc(C)n1C[C@@]12CNCC[C@]1(c1ccc(Cl)c(Cl)c1)C2 (racemic) | 0.00251 | 0.02 | 0.02 | 
CC(C)(C)c1ccn(C[C@@]23CNCC[C@]2(c2ccc(Cl)c(Cl)c2)C3)n1 (racemic) | 0.000251 | 0.0501 | 0.00631 | 
Cc1nc(C)n(CC23CNCC[C@]2(c2ccc(Cl)c(Cl)c2)C3)n1 (single isomer, unassigned; enantiomer 1) | 0.002 | 0.0251 | 0.0158 | IC50 [4]: > 25 µM; clearance [5]: 63 mL/min/kg; IC50 [6]: > 25 µM; Fa [7]: 94%; Kp at 1 h [8]: 0.4; IC50 [9]: > 25 µM; IC50 [10]: > 25 µM; half-life [11]: 1.7 h; hepatic extraction ratio [12]: 0.8; IC50 [13]: > 25 µM; bioavailability [14]: 17%; Vd [15]: 8.1 L/kg
CC(C)c1nnnn1C[C@@]12CNCC[C@]1(c1ccc(Cl)c(Cl)c1)C2 (racemic) | 0.0631 | 0.398 | 0.0631 | 
Cc1nc(C)n(CC23CNCC[C@]2(c2ccc(Cl)c(Cl)c2)C3)n1 (stereo in doubt; 38) | 0.0398 | 1.58 | 0.2 | 
Cc1noc([C@@]23CNCC[C@]2(c2ccc(Cl)c(Cl)c2)C3)n1 (racemic) | 0.00794 | 0.0316 | 0.000794 | 
Cc1cnc([C@@]23CNCC[C@]2(c2ccc(Cl)c(Cl)c2)C3)o1 (racemic) | 0.00631 | 0.00631 | 0.001 | 
Clc1ccc([C@]23CCNCC2(Cn2ccc4ccccc42)C3)cc1Cl (stereo partly specified) | 0.00126 | 0.0631 | 0.02 | 
Clc1ccc([C@]23CCNCC2(Cn2ncc4ccccc42)C3)cc1Cl (stereo partly specified) | 0.000251 | 0.0501 | 0.0158 | 
Cc1cc(C(F)(F)F)nn1C[C@@]12CNCC[C@]1(c1ccc(Cl)c(Cl)c1)C2 (racemic) | 0.001 | 0.0251 | 0.002 | 
Cc1cc(C)n(CC23CNCC[C@]2(c2ccc(Cl)c(Cl)c2)C3)n1 (single isomer, unassigned; enantiomer 1) | 0.0158 | 0.501 | 0.158 | 
Clc1ccc([C@]23CCNCC2(Cn2cc4ccccc4n2)C3)cc1Cl (stereo partly specified) | 0.0002 | 0.0501 | 0.00398 | 
FC(F)(F)c1ccnn1C[C@@]12CNCC[C@]1(c1ccc(Cl)c(Cl)c1)C2 (racemic) | 0.002 | 0.01 | 0.00158 | 
N#Cc1cccn1C[C@@]12CNCC[C@]1(c1ccc(Cl)c(Cl)c1)C2 (racemic) | 0.00251 | 0.0398 | 0.0126 | 

SMILES | Ki [1] [µM] | Ki [2] [µM] | Ki [3] [µM] | also measured
N#Cc1ccn(C[C@@]23CNCC[C@]2(c2ccc(Cl)c(Cl)c2)C3)n1 (racemic) | 0.001 | 0.0251 | 0.0251 | 
Cc1cc(C)n(CC23CNCC[C@]2(c2ccc(Cl)c(Cl)c2)C3)n1 (single isomer, unassigned) | 0.0002 | 0.001 | 0.00316 | CL [16]: 2.4 mL/min/g; clearance [5]: 52 mL/min/kg; Fa [7]: 50%; Kp at 1 h [8]: 0.8; CL [17]: 5.5 mL/min/g; half-life [11]: 2.3 h; bioavailability [14]: 6%; Vd [15]: 6.9 L/kg
Cc1ccn(CC23CNCC[C@]2(c2ccc(Cl)c(Cl)c2)C3)n1 (single isomer, unassigned; enantiomer 1) | 0.02 | 1 | 0.316 | 
CC(C)c1nnn(C[C@@]23CNCC[C@]2(c2ccc(Cl)c(Cl)c2)C3)n1 (racemic) | 0.000794 | 0.398 | 0.0251 | 
Cc1nc(C)n(C[C@@]23CNCC[C@]2(c2ccc(Cl)c(Cl)c2)C3)n1 (racemic) | 0.00316 | 0.0398 | 0.0251 | 
N#Cc1ccnn1C[C@@]12CNCC[C@]1(c1ccc(Cl)c(Cl)c1)C2 (racemic) | 0.00501 | 0.0316 | 0.02 | 
Cc1ccn(CC23CNCC[C@]2(c2ccc(Cl)c(Cl)c2)C3)c1 (stereo partly specified) | 0.000501 | 0.0398 | 0.0316 | 
Cc1ncoc1C[C@@]12CNCC[C@]1(c1ccc(Cl)c(Cl)c1)C2 (racemic) | 0.00316 | 0.0251 | 0.0126 | 
Cc1cc([C@@]23CNCC[C@]2(c2ccc(Cl)c(Cl)c2)C3)no1 (racemic) | 0.00794 | 0.0398 | 0.002 | 
Cc1ccn(CC23CNCC[C@]2(c2ccc(Cl)c(Cl)c2)C3)n1 (stereo in doubt) | 0.000251 | 0.00316 | 0.0158 | IC50 [4]: > 10 µM; IC50 [6]: > 10 µM; IC50 [9]: > 10 µM; IC50 [10]: > 10 µM; IC50 [13]: > 10 µM
Cc1cc(C(F)(F)F)n(C[C@@]23CNCC[C@]2(c2ccc(Cl)c(Cl)c2)C3)n1 (racemic) | 0.000794 | 0.01 | 0.00126 | 
Cc1csc([C@@]23CNCC[C@]2(c2ccc(Cl)c(Cl)c2)C3)n1 (racemic) | 0.000501 | 0.000398 | 0.000158 | 
FC(F)(F)c1ccn(C[C@@]23CNCC[C@]2(c2ccc(Cl)c(Cl)c2)C3)n1 (racemic) | 0.002 | 0.158 | 0.0251 | 
Cc1cc(C)n(C[C@@]23CNCC[C@]2(c2ccc(Cl)c(Cl)c2)C3)n1 (racemic) | 0.000398 | 0.00158 | 0.00631 | 
Cc1csc(C23CNCC[C@]2(c2ccc(Cl)c(Cl)c2)C3)n1 (single isomer, unassigned; enantiomer 1) | 0.000398 | 0.000398 | 0.0002 | IC50 [4]: > 6 µM; CL [16]: 2.6 mL/min/g; IC50 [6]: > 6 µM; IC50 [9]: > 6 µM; IC50 [10]: > 6 µM; CL [17]: 5.4 mL/min/g; IC50 [13]: > 6 µM
Cc1cc(C)n(C[C@@]23CNCC[C@]2(c2ccc(Cl)c(Cl)c2)C3)c1 (racemic) | 0.002 | 0.02 | 0.00794 | 
Cc1ccnn1CC12CNCC[C@]1(c1ccc(Cl)c(Cl)c1)C2 (single isomer, unassigned; enantiomer 2) | 0.000794 | 0.00158 | 0.00316 | IC50 [4]: > 10 µM; CL [16]: 2.5 mL/min/g; IC50 [6]: > 10 µM; IC50 [9]: > 10 µM; IC50 [10]: > 10 µM; CL [17]: 2.6 mL/min/g; IC50 [13]: > 10 µM
Cc1ccnn1CC12CNCC[C@]1(c1ccc(Cl)c(Cl)c1)C2 (stereo in doubt; 16) | 0.02 | 0.316 | 0.1 | 
Cc1csc(C23CNCC[C@]2(c2ccc(Cl)c(Cl)c2)C3)n1 (stereo in doubt; 7) | 0.0158 | 0.0316 | 0.02 | 
